Patent publication US20010011075A1, “5'-SUBSTITUTED-RIBOFURANOSYL BENZIMIDAZOLES AS ANTIVIRAL AGENTS” (priority 1999, published 2001)
Where two headings read alike, the source gives them in different places.

Experiments:
HSV-1 = HSV-1 ELISA assay; assay type: cell-based, HSV-1 (KOS strain); details: read-out: 50% Inhibitory Concentration, Antiviral Activity (ELISA)
Description: (§1) A plaque purified isolate, Po, of the Towne strain of HCMV was used in all experiments and was a gift of Dr. Mark Stinski, University of Iowa. The KOS strain of HSV-1 was used and was provided by Dr. Sandra K. Weller, University of Connecticut. Stock preparations of HCMV and HSV-1 were prepared and titered as known to those of skill and the art and described in Turk, S. R. et al. (1987) Antimicrob. Agents Chemother. Vol. 31:544-550 and Shipman, C., Jr., et al. (1990) J. Virol. Methods Vol. 28:101-106, each incorporated herein by reference.
(§2) HCMV plaque reduction experiments were performed with monolayer cultures of HFF cells by a procedure similar to that referenced above for titration of the viruses and described in Devivar, R. V. et al. (1994) J. Med. Chem. Vol. 37:2942-2949. Activity of compounds against HSV-1 was evaluated using an ELISA assay.
ELISA techniques according to standard procedures were also used to determine activity against HSV-1. Drug effects were calculated as a percentage of the reduction in virus titers in the presence of each drug concentration compared to the titer obtained in the absence of drug. Ganciclovir was used as a positive control in all experiments.
(§3) Dose-response relationships can be used to compare drug effects. These are constructed by linearly regressing the percent inhibition of parameters derived in the preceding sections against log drug concentrations. The 50 inhibitory (I50) concentrations were calculated from the regression lines using the methods described by Goldstein. See Goldstein, A., Biostatistics: An Introductory Text, MacMillan, New York, pp. 156-161 (1964), incorporated herein by reference.
(§4) (2) A plaque assay was used to quantitate anti HCMV activity, an ELISA assay was used to quantitate activity against HSV-1. DHPG (ganciclovir) was used as a positive control for the HCMV assay.

[1] = Inhibition of KB cell growth (crystal violet staining); assay type: cell-based, human; details: human, KB cells (human epidermal oral carcinoma line); inhibition of KB cell growth; read-out: 50% Inhibitory Concentration, Cytotoxicity (KB)
Description: (§5) KB cells (available from the American Type Culture Collection (ATCC) 12301 Parklawn Drive, […], Md. 20852 (ATCC CCL 17)), an established human cell line derived from an epidermal oral carcinoma, were grown in minimal essential medium (MEM) (Sigma) with Hanks salts (MEM(H)) supplemented with 5% fetal calf serum. Human foreskin fibroblasts (HFF cells) (provided by the University of Michigan Hospital) and African green monkey kidney cells (BSC-1) (ATTC CCL 26) cells were grown in MEM with Earl salts (MEM(E)) supplemented with 10% fetal bovine serum. Cells were passaged according to conventional procedures and as described in Shipman, C., Jr. et al. (1976) Antimicrob. Agents Chemother. Vol. 9:120 and incorporated herein by reference. Briefly, cells were passaged at 1:2 to 1:10 dilutions according to conventional procedures by using 0.05% trypsin plus 0.02% EDTA in a HEPES buffered salt solution. HFF cells were passaged only at 1:2 dilutions.
(§6) Two different methods were used to evaluate cytotoxicity of the compounds. First, cytotoxicity produced in stationary HFF cells was determined by microscopical examination of cells not affected by the virus used in the plaque assay. Second the effect of compounds on KB cells during two population doubling times was determined by crystal violet staining and spectrophotometric quantitation of dye eluted from stained cells. This method has been utilized for the analysis of ganciclovir and zidovudine (See Prichard, M. N. et al. Antiviral Res. (1991) Vol. 35:1060-1065).
(§7) (3) Visual cytotoxicity was scored on HFF cells at the time of HCMV plaque enumeration. Inhibition of KB cell growth was determined as described in the experimental. 3L was used as a positive control for the KB cytotoxicity assay.

[2] = Visual cytotoxicity in stationary HFF cells at time of plaque enumeration; assay type: cell-based, human; details: human, stationary human foreskin fibroblasts (HFF cells); visual cytotoxicity on HFF cells at time of HCMV plaque enumeration; read-out: 50% Inhibitory Concentration, Cytotoxicity (HFF)
Description: as §5, §6, §7

HCMV = HCMV plaque (focus) reduction assay in HFF cells; assay type: cell-based, HCMV (Towne strain); details: HCMV plaque assay, HFF cells, averages from two or more experiments, read-out: 50% Inhibitory Concentration, Antiviral Activity (plaque)
Description: as §1, §2
The effect of compounds of the replication of HCMV was measured using a plaque (focus) reduction assay. For the former, HFF cells in 24-well culture dishes were infected with approximately 50 p.f.u. of HCMV per well using the procedures detailed above. Compounds dissolved in growth medium were added in four to six selected concentrations to duplicate wells following virus adsorption. Following incubation at 37° C. for 7 to 10 days, cell sheets were fixed, stained and microscopic plaques were enumerated as described above. Drug effects were calculated as a percentage of reduction in number of plaques in the presence of each drug concentration compared to the number observed in the absence of drug. DHPG (ganciclovir) was used as a positive control in all experiments.
as §3, §4

KB cells = test: Inhibition of KB cell growth (crystal violet staining); assay type: cell-based, human; details: for IC50: inhibition of KB cell growth, read-out: 50% Inhibitory Concentration, Cytotoxicity (KB)
Description: as §5, §6, §7

HFF cells = test: Visual cytotoxicity in stationary HFF cells at time of plaque enumeration; assay type: cell-based, human; details: visual cytotoxicity on HFF cells at time of HCMV plaque enumeration; read-out: 50% Inhibitory Concentration, Cytotoxicity (HFF)
Description: as §5, §6, §7

L1210 cells = test: Antiproliferative activity: growth of L1210 cells; assay type: cell-based, mouse; details: for IC50: concentration required to decrease final growth rate of L1210 cells to half of control rate, read-out: 50% Inhibitory Concentration, Antiproliferative Activity
Description: Antiproliferative activity was evaluated by measuring the effect of the compounds on the growth of L1210 cells, a mouse leukemia cell line which is generally available and can be obtained from Cancer Chemotherapy Center, Japanese Foundation for Cancer Research. Antiproliferative activity was measured using conventional procedures and as described in Wotring, L. L. and Townsend, L. B., (1979) Cancer Res. Vol. 39:3018-3023 and Cory, A. H. et al. (1991) Cancer Comm. Vol. 3:207-212, each incorporated herein by reference.
(8) The concentration required to decrease the final growth rate of L1210 cells to half of the control rate. All values are averages from two or more experiments.

[3] = Human alphaherpesvirus 1, averages from two or more experiments
[4] = averages from two or more experiments

SMILES	IC50 (HSV-1; [3]) [µM]	IC50 at 2 population doubling times [1] [µM]	IC50 [2] [µM]	IC50 (HCMV; Human betaherpesvirus 5, HFF) [µM]	IC50 (HSV-1; [4]) [µM]	cytotoxicity in growing KB cells (in words) (KB cells)	IC50 (KB cells) [µM]	IC50 (HFF cells) [µM]	IC50 (HCMV) [µM]	IC50 (L1210 cells) [µM]	antiproliferative effect in L1210 cells (in words) (L1210 cells; statement in text on Table 2)
OC[C@H]1O[C@@H](n2c(Cl)nc3cc(Cl)c(Cl)cc32)[C@H](O)[C@@H]1O [Compound 1, 2,5,6-trichloro-1-(β-D-ribofuranosyl)benzimidazole, reference compound]	> 100	210	238	2.76	–	–	–	–	–	–	–
CC(=O)O[C@@H]1[C@H](OC(C)=O)[C@@H](CF)O[C@H]1n1c(Cl)nc2cc(Cl)c(Cl)cc21 [Compound 12a, 2,5,6-trichloro-1-(2′,3′-di-O-acetyl-5′-deoxy-5′-fluoro-β-D-ribofuranosyl)benzimidazole]	–	–	–	–	> 100	little or no cytoxicity	100	32	0.6	–	–
CC(=O)O[C@@H]1[C@H](OC(C)=O)[C@@H](CCl)O[C@H]1n1c(Cl)nc2cc(Cl)c(Cl)cc21 [Compound 12b, 2,5,6-trichloro-1-(2′,3′-di-O-acetyl-5′-deoxy-5′-chloro-β-D-ribofuranosyl)benzimidazole]	–	–	–	–	> 100	–	90	32	1.4	–	–
CC(=O)O[C@@H]1[C@H](OC(C)=O)[C@@H](CBr)O[C@H]1n1c(Cl)nc2cc(Cl)c(Cl)cc21 [Compound 12c, 2,5,6-trichloro-1-(2′,3′-di-O-acetyl-5′-deoxy-5′-bromo-β-D-ribofuranosyl)benzimidazole]	–	–	–	–	> 100	–	60	32	2.7	–	–
CC(=O)O[C@@H]1[C@H](OC(C)=O)[C@@H](CI)O[C@H]1n1c(Cl)nc2cc(Cl)c(Cl)cc21 [Compound 12d, 2,5,6-trichloro-1-(2′,3′-di-O-acetyl-5′-deoxy-5′-iodo-β-D-ribofuranosyl)benzimidazole]	–	–	–	–	> 100	–	60	32	2.5	–	–
O[C@@H]1[C@H](O)[C@@H](CF)O[C@H]1n1c(Cl)nc2cc(Cl)c(Cl)cc21 [Compound 13a, 2,5,6-trichloro-1-(5′-deoxy-5′-fluoro-β-D-ribofuranosyl)benzimidazole]	–	–	–	–	> 100	little or no cytoxicity	> 100	32	0.5	> 100	no antiproliferative effect
O[C@@H]1[C@H](O)[C@@H](CCl)O[C@H]1n1c(Cl)nc2cc(Cl)c(Cl)cc21 [Compound 13b, 2,5,6-trichloro-1-(5′-deoxy-5′-chloro-β-D-ribofuranosyl)benzimidazole]	–	–	–	–	> 100	–	90	32	1	> 100	–
O[C@@H]1[C@H](O)[C@@H](CBr)O[C@H]1n1c(Cl)nc2cc(Cl)c(Cl)cc21 [Compound 13c, 2,5,6-trichloro-1-(5′-deoxy-5′-bromo-β-D-ribofuranosyl)benzimidazole]	–	–	–	–	> 100	–	90	32	1.5	–	–
O[C@@H]1[C@H](O)[C@@H](CI)O[C@H]1n1c(Cl)nc2cc(Cl)c(Cl)cc21 [Compound 13d, 2,5,6-trichloro-1-(5′-deoxy-5′-iodo-β-D-ribofuranosyl)benzimidazole]	–	–	–	–	–	–	–	32	3.2	–	–
CC(=O)O[C@@H]1[C@H](OC(C)=O)[C@@H](CN=[N+]=[N-])O[C@H]1n1c(Cl)nc2cc(Cl)c(Cl)cc21 [Compound 16a, 2,5,6-trichloro-1-(2′,3′-di-O-acetyl-5′-deoxy-5′-azido-β-D-ribofuranosyl)benzimidazole]	–	–	–	–	> 100	–	70	32	1.5	–	–
CSC[C@H]1O[C@@H](n2c(Cl)nc3cc(Cl)c(Cl)cc32)[C@H](OC(C)=O)[C@@H]1OC(C)=O [Compound 16b, 2,5,6-trichloro-1-(2′,3′-di-O-acetyl-5′-deoxy-5′-methylthio-β-D-ribofuranosyl) benzimidazole]	–	–	–	–	> 100	–	> 100	32	4.8	–	–
[N-]=[N+]=NC[C@H]1O[C@@H](n2c(Cl)nc3cc(Cl)c(Cl)cc32)[C@H](O)[C@@H]1O [Compound 17a, 2,5,6-trichloro-1-(5′-deoxy-5′-azido-β-D-ribofuranosyl)benzimidazole]	–	–	–	–	> 100	–	70	32	1.5	80	–
CC1(C)O[C@@H]2[C@H](O1)[C@@H](CO)O[C@H]2n1c(Cl)nc2cc(Cl)c(Cl)cc21 [Compound 18, 2,5,6-Trichloro-1-(2′,3′-O-isopropylidene-β-D-ribofuranosyl)benzimidazole]	–	–	–	–	–	–	–	> 100	12.4	–	–
CC1(C)OC2C(CN=[N+]=[N-])OC(n3c(Cl)nc4cc(Cl)c(Cl)cc43)C2O1 [Compound 19a, 2,5,6-Trichloro-1-(2′,3′-O-isopropylidene-5′-deoxy-5′-azido-β-D-ribofuranosyl) benzimidazole]	–	–	–	–	–	–	–	32	10.9	–	–
CC1(C)O[C@@H]2[C@H](O1)[C@@H](CCl)O[C@H]2n1c(Cl)nc2cc(Cl)c(Cl)cc21 [Compound 19b, 2,5,6-Trichloro-1-(2′,3′-O-isopropylidene-5′-deoxy-5′-chloro-β-D-ribofuranosyl) benzimidazole]	–	–	–	–	> 100	–	100	66	13.5	–	–
Nc1nc(O)c2ncn(COC(CO)CO)c2n1 [DHPG, ganciclovir, reference compound]	3.5	> 100	> 100	–	–	–	–	–	–	–	–
